Like-named read-outs stand apart in the source and are kept apart here.
Assays:
Format in all cases: cell-based, human
AGS cells [1] = assay: Cell survival assay (antiproliferative IC50); details: Homo sapiens, read-out: Antiproliferative IC50
COLO205 cells [2] = assay: Cell survival assay (antiproliferative IC50); details: Homo sapiens
HL-60 cells = assay: Cell survival assay (antiproliferative IC50); details: Homo sapiens
HT-29 cells = assay: Cell survival assay (antiproliferative IC50); details: Homo sapiens
Summary of the method: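 HT-29 cells in RPMI 1640 with 10% heat-inactivated FBS, 2×10^5 per well, treated next day with compounds from DMSO stocks (0.05% DMSO final) for 24 h, or 1, 3 or 6 days. Growth read by hemocytometer count and CyQUANT total nucleic acid content; IC50 antiproliferative.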

AGS cells [3] = assay: Cell cycle distribution by flow cytometry; details: 24 h, Table 11
Summary of the method: (§1)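 Human cancer cells (2×10^5 per dish) exposed 24 h to compound at 5–100 μM, or DMSO. Cells ethanol-fixed at −20° C overnight, RNase/Triton-treated at 37° C for 30 min, then stained with propidium iodide. DNA content read by FACScan flow cytometry to give phase distribution.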

COLO205 cells [4] = assay: Cell cycle distribution by flow cytometry; details: 24 h; for Cell Cycle Distribution G0/G1 / Cell Cycle Distribution G2/M / Cell Cycle Distribution S: COLO205 cells, Table 12
Summary of the method: as §1

[5] = COLO 205, read-out: Antiproliferative IC50
[6] = HL-60, read-out: Antiproliferative IC50

Structure (SMILES): COc1c(OC)c(OC)c2c(=O)cc(-c3ccc(O)c(O)c3)oc2c1OC [H, 3′,4′-dihydroxy-5,6,7,8-tetramethoxyflavone]
- IC50 (AGS cells [1]; AGS): 69.3 ± 4.23 µM
- IC50 (COLO205 cells [2]; [5]): 90.1 ± 11.9 µM
- IC50 (HL-60 cells; [6]): 71.2 ± 1.93 µM
- IC50 (HT-29 cells): 74.72 ± 0.2 µM
- Cell Cycle Distribution G0/G1 (AGS cells [3]; 5 μM): 62.78 ± 2.93
- Cell Cycle Distribution G2/M (AGS cells [3]; 5 μM): 16.57 ± 1.93
- Cell Cycle Distribution S (AGS cells [3]; 5 μM): 20.66 ± 1.00
- Cell Cycle Distribution G0/G1 (AGS cells [3]; 10 μM): 61.72 ± 2.76
- Cell Cycle Distribution G2/M (AGS cells [3]; 10 μM): 17.39 ± 2.76
- Cell Cycle Distribution S (AGS cells [3]; 10 μM): 20.89 ± 0.00
- Cell Cycle Distribution G0/G1 (AGS cells [3]; 25 μM): 63.91 ± 0.92
- Cell Cycle Distribution G2/M (AGS cells [3]; 25 μM): 16.82 ± 1.04
- Cell Cycle Distribution S (AGS cells [3]; 25 μM): 19.28 ± 0.12
- Cell Cycle Distribution G0/G1 (AGS cells [3]; 50 μM): 63.96 ± 1.65
- Cell Cycle Distribution G2/M (AGS cells [3]; 50 μM): 16.74 ± 2.15
- Cell Cycle Distribution S (AGS cells [3]; 50 μM): 19.31 ± 0.51
- Cell Cycle Distribution G0/G1 (AGS cells [3]; 100 μM): 68.04 ± 1.34
- Cell Cycle Distribution G2/M (AGS cells [3]; 100 μM): 22.69 ± 0.13
- Cell Cycle Distribution S (AGS cells [3]; 100 μM): 9.27 ± 1.46
- Cell Cycle Distribution G0/G1 (COLO205 cells [4]; 5 μM): 67.26 ± 0.45
- Cell Cycle Distribution G2/M (COLO205 cells [4]; 5 μM): 8.17 ± 0.60
- Cell Cycle Distribution S (COLO205 cells [4]; 5 μM): 24.58 ± 0.15
- Cell Cycle Distribution G0/G1 (COLO205 cells [4]; 10 μM): 66.67 ± 0.16
- Cell Cycle Distribution G2/M (COLO205 cells [4]; 10 μM): 6.18 ± 0.63
- Cell Cycle Distribution S (COLO205 cells [4]; 10 μM): 27.16 ± 0.46
- Cell Cycle Distribution G0/G1 (COLO205 cells [4]; 25 μM): 66.99 ± 1.32
- Cell Cycle Distribution G2/M (COLO205 cells [4]; 25 μM): 6.89 ± 0.21
- Cell Cycle Distribution S (COLO205 cells [4]; 25 μM): 26.13 ± 1.11
- Cell Cycle Distribution G0/G1 (COLO205 cells [4]; 50 μM): 64.49 ± 1.00
- Cell Cycle Distribution G2/M (COLO205 cells [4]; 50 μM): 8.94 ± 1.12
- Cell Cycle Distribution S (COLO205 cells [4]; 50 μM): 26.57 ± 2.12
- Cell Cycle Distribution G0/G1 (COLO205 cells [4]; 100 μM): 66.50 ± 0.06
- Cell Cycle Distribution G2/M (COLO205 cells [4]; 100 μM): 6.98 ± 0.02
- Cell Cycle Distribution S (COLO205 cells [4]; 100 μM): 26.53 ± 0.08

Structure (SMILES): COc1ccc(-c2cc(=O)c3c(OC)c(OC)c(OC)c(OC)c3o2)cc1O [I, 3′-hydroxy-5,6,7,8,4′-pentamethoxyflavone]
- IC50 (AGS cells [1]; AGS): 65.75 ± 0.41 µM
- IC50 (COLO205 cells [2]; [5]): 76 ± 1.88 µM
- IC50 (HL-60 cells; [6]): 52.72 ± 0.22 µM
- IC50 (HT-29 cells): > 100 µM
- Cell Cycle Distribution G0/G1 (AGS cells [3]; 5 μM): 57.25 ± 0.28
- Cell Cycle Distribution G2/M (AGS cells [3]; 5 μM): 16.01 ± 0.21
- Cell Cycle Distribution S (AGS cells [3]; 5 μM): 26.74 ± 0.49
- Cell Cycle Distribution G0/G1 (AGS cells [3]; 10 μM): 58.27 ± 0.96
- Cell Cycle Distribution G2/M (AGS cells [3]; 10 μM): 17.94 ± 1.07
- Cell Cycle Distribution S (AGS cells [3]; 10 μM): 23.79 ± 2.03
- Cell Cycle Distribution G0/G1 (AGS cells [3]; 25 μM): 49.07 ± 1.22
- Cell Cycle Distribution G2/M (AGS cells [3]; 25 μM): 16.15 ± 0.69
- Cell Cycle Distribution S (AGS cells [3]; 25 μM): 34.79 ± 1.90
- Cell Cycle Distribution G0/G1 (AGS cells [3]; 50 μM): 62.72 ± 1.27
- Cell Cycle Distribution G2/M (AGS cells [3]; 50 μM): 0.59 ± 0.74
- Cell Cycle Distribution S (AGS cells [3]; 50 μM): 36.70 ± 2.00
- Cell Cycle Distribution G0/G1 (AGS cells [3]; 100 μM): 69.35 ± 0.70
- Cell Cycle Distribution G2/M (AGS cells [3]; 100 μM): 12.65 ± 0.84
- Cell Cycle Distribution S (AGS cells [3]; 100 μM): 18.01 ± 0.14
- Cell Cycle Distribution G0/G1 (COLO205 cells [4]; 5 μM): 64.51 ± 1.26
- Cell Cycle Distribution G2/M (COLO205 cells [4]; 5 μM): 6.46 ± 0.35
- Cell Cycle Distribution S (COLO205 cells [4]; 5 μM): 29.03 ± 1.61
- Cell Cycle Distribution G0/G1 (COLO205 cells [4]; 10 μM): 64.14 ± 1.71
- Cell Cycle Distribution G2/M (COLO205 cells [4]; 10 μM): 5.54 ± 0.41
- Cell Cycle Distribution S (COLO205 cells [4]; 10 μM): 30.32 ± 1.30
- Cell Cycle Distribution G0/G1 (COLO205 cells [4]; 25 μM): 67.09 ± 0.57
- Cell Cycle Distribution G2/M (COLO205 cells [4]; 25 μM): 5.43 ± 1.17
- Cell Cycle Distribution S (COLO205 cells [4]; 25 μM): 27.48 ± 0.62
- Cell Cycle Distribution G0/G1 (COLO205 cells [4]; 50 μM): 68.03 ± 1.51
- Cell Cycle Distribution G2/M (COLO205 cells [4]; 50 μM): 4.83 ± 1.48
- Cell Cycle Distribution S (COLO205 cells [4]; 50 μM): 27.15 ± 0.04
- Cell Cycle Distribution G0/G1 (COLO205 cells [4]; 100 μM): 83.31 ± 1.06
- Cell Cycle Distribution G2/M (COLO205 cells [4]; 100 μM): 0.02 ± 0.02
- Cell Cycle Distribution S (COLO205 cells [4]; 100 μM): 16.68 ± 1.04
- Cell cycle arrest, in words (COLO205 cells [4]; COLO 205 cells, compound A 50 μM, compound I 100 μM): trends in G1 arrest

Structure (SMILES): COc1ccc(-c2cc(=O)c3c(O)c(OC)c(OC)c(OC)c3o2)cc1OC [J, 5-hydroxy-6,7,8,3′,4′-pentamethoxyflavone]
- IC50 (AGS cells [1]; AGS cells): > 100 µM
- IC50 (COLO205 cells [2]; COLO 205, COLO205 cells, read-out: Antiproliferative IC50): > 100 µM
- IC50 (HL-60 cells; HL-60 cells, read-out: Antiproliferative IC50): > 100 µM
- IC50 (HT-29 cells): > 100 µM
- Cell Cycle Distribution G0/G1 (AGS cells [3]; 5 μM): 58.65 ± 1.77
- Cell Cycle Distribution G2/M (AGS cells [3]; 5 μM): 13.51 ± 1.20
- Cell Cycle Distribution S (AGS cells [3]; 5 μM): 27.84 ± 0.56
- Cell Cycle Distribution G0/G1 (AGS cells [3]; 10 μM): 57.07 ± 1.02
- Cell Cycle Distribution G2/M (AGS cells [3]; 10 μM): 13.84 ± 0.52
- Cell Cycle Distribution S (AGS cells [3]; 10 μM): 29.09 ± 1.54
- Cell Cycle Distribution G0/G1 (AGS cells [3]; 25 μM): 58.84 ± 4.84
- Cell Cycle Distribution G2/M (AGS cells [3]; 25 μM): 14.00 ± 4.20
- Cell Cycle Distribution S (AGS cells [3]; 25 μM): 27.17 ± 0.64
- Cell Cycle Distribution G0/G1 (AGS cells [3]; 50 μM): 52.82 ± 3.22
- Cell Cycle Distribution G2/M (AGS cells [3]; 50 μM): 15.74 ± 0.11
- Cell Cycle Distribution S (AGS cells [3]; 50 μM): 31.45 ± 3.31
- Cell Cycle Distribution G0/G1 (AGS cells [3]; 100 μM): 58.11 ± 1.11
- Cell Cycle Distribution G2/M (AGS cells [3]; 100 μM): 12.71 ± 0.25
- Cell Cycle Distribution S (AGS cells [3]; 100 μM): 29.24 ± 1.28
- Cell Cycle Distribution G0/G1 (COLO205 cells [4]; 5 μM): 56.75 ± 1.52
- Cell Cycle Distribution G2/M (COLO205 cells [4]; 5 μM): 7.41 ± 0.30
- Cell Cycle Distribution S (COLO205 cells [4]; 5 μM): 35.85 ± 1.22
- Cell Cycle Distribution G0/G1 (COLO205 cells [4]; 10 μM): 59.63 ± 0.88
- Cell Cycle Distribution G2/M (COLO205 cells [4]; 10 μM): 7.07 ± 0.86
- Cell Cycle Distribution S (COLO205 cells [4]; 10 μM): 31.99 ± 1.85
- Cell Cycle Distribution G0/G1 (COLO205 cells [4]; 25 μM): 63.97 ± 0.56
- Cell Cycle Distribution G2/M (COLO205 cells [4]; 25 μM): 6.38 ± 1.05
- Cell Cycle Distribution S (COLO205 cells [4]; 25 μM): 29.65 ± 1.61
- Cell Cycle Distribution G0/G1 (COLO205 cells [4]; 50 μM): 64.90 ± 1.44
- Cell Cycle Distribution G2/M (COLO205 cells [4]; 50 μM): 6.41 ± 0.13
- Cell Cycle Distribution S (COLO205 cells [4]; 50 μM): 28.69 ± 1.57
- Cell Cycle Distribution G0/G1 (COLO205 cells [4]; 100 μM): 62.39 ± 2.98
- Cell Cycle Distribution G2/M (COLO205 cells [4]; 100 μM): 7.05 ± 0.13
- Cell Cycle Distribution S (COLO205 cells [4]; 100 μM): 30.57 ± 2.84
